Test results as given in publication PMC9732821, “Neurotrophic Activity and Its Modulation by Zinc Ion of a Dimeric Peptide Mimicking the Brain-Derived Neurotrophic Factor N-Terminal Region” (ACS Chemical Neuroscience, 2022).

Legend:
[1] = potentiometric titration, Zn^2+ complex stability constants; format: binding; conditions: 298 K, 0.1 M KNO3, metal/ligand 0.9:1 to 2.2:1
Experimental: (§1) Potentiometric measurements were carried out to give insight into the coordination environment of Zn^2+ bound to the d-bdnf peptide (Figure S5). […] The four protonation equilibria of the aspartic and glutamic residues partly overlap but, in agreement with the literature data, the aspartic β-carboxylic group is more acidic than glutamic γ-carboxylic one.[48] The potentiometric titrations were carried out exploring 0.9:1 and 2.2:1 metal to ligand molar ratio. […] The peptide forms two complex species, [ZnLH] and [ZnL]. The first one is the predominant at pH = 6, and the calculated stability constant value [logK(111) = logβ(111) – logK(011) = 5.71] indicates the involvement of three nitrogen atoms in the metal coordination environment. The [ZnL] species display a stability constant value, logβ = 7.15, higher than that of protonated species indicative of the involvement of a further nitrogen atom in the metal binding mode. In this complex species, Zn^2+ is bound to four nitrogen atoms with the involvement of two amino and two imidazole (2NH2,2NIm coordination mode). […]
(§2) Potentiometric measurements
Potentiometric titrations were carried out on a Titrando 905 automatic, using a combined glass-Ag/AgCl electrode (Metrohm, Switzerland). […] To avoid systematic errors and verify reproducibility, the EMF values of each experiment were recorded at different time intervals. The data were analyzed by […]

[2] = potentiometric titration, protonation constants; format: physicochemical; conditions: 298 K
Experimental: as §1, §2
Potentiometric titrations were carried out on a Titrando 905 automatic, using a combined glass-Ag/AgCl electrode (Metrohm, Switzerland). Solutions (2.0 mL) were thermostated at 298 K and in argon atmosphere. The ionic strength was 0.1 M in KNO3. A 0.1 M solution of KOH was used to titrate solutions containing either the peptides only (protonation constants) or the peptides with Zn2+ (complexation constants). The peptide concentrations range used was 1-2 mM in both series of experiments. At least three independent titrations were performed. Starting pH value was adjusted to 2.4 by adding HNO3 0.2 M. The titrations were carried out up to pH 8.5. Metal ion/ligand ratios between 0.9:1 and 2.2:1 were employed. To avoid systematic errors and verify reproducibility, the EMF values of each experiment were recorded at different time intervals. The data were analyzed by […]
using HYPERQUAD 2003 program 17. […]

[3] = test system: human neural progenitor cell line (RenVM); test: neuronal differentiation of Ren cells (β3-tubulin positive fraction); format: cell-based; conditions: 1 μM d-bdnf, four days; BDNF 50 ng/mL comparator
Experimental: Figure 3 Neurite outgrowth stimulated by BDNF and its mimetic peptide ligands. (A) Top, left: schematic timeline of the experiment. SH-SY5Y cells were differentiated for 5 days (d1–5) by addition of retinoic acid (RA, gray bar) in the cell medium. Then, cells were stimulated for 3 days (d6–8) with 150 ng/mL BDNF or different concentrations of its peptide-mimetics (black bar) or left untreated (white bar). On the right and bottom, representative images of the differentiated cells at the end of each treatment. Scale bar 50 μm. (B) Scatter dot plot of the total neurite length, normalized to the number of cell bodies present in each analyzed field. […] For each field, an average of 50–200 cells were counted. […] (C) Representative fluorescence images of DIV3 Ren cells stained with DAPI (blue) and β3-tubulin (green) after differentiation with the standard medium (CTRL), or with the standard medium supplemented with 50 ng/mL BDNF or with 1 μM d-bdnf. […] (D) Column plot of the mean ± SD fraction of β3-tubulin (green) positive on the total cells, counted in the DAPI channel of the analyzed fields (nfields) (CTRL: nfields = 10 and total ncells = 4756; BDNF: nfields = 11 and total ncells = 4330; d-bdnf: nfields = 10 and total ncells = 5619 cells; ****p < 0.0001, *p < 0.05 according to the one-way ANOVA with Dunnett’s multiple comparison test). […]

[4] = species LH 12 (NH2), 0.1 M KNO3
[5] = species LH 13 (His), 0.1 M KNO3
[6] = species LH 14 (His), 0.1 M KNO3
[7] = species LH 15 (COO), 0.1 M KNO3
[8] = species LH 16 (COO), 0.1 M KNO3
[9] = species LH 17 (COO), 0.1 M KNO3
[10] = species LH 18 (COO), 0.1 M KNO3

- log (Zn2+ complex stability constant) ([1]; species ZnLH 110, [ZnL] (2 His, 2 NH2)): 7.15 (3)
- log (Zn2+ complex stability constant) ([1]; species ZnLH 111 (2 His, NH2)): 13.30 (2)
- logk (stepwise protonation, pK) ([2]; species LH 11 (NH2), 0.1 M KNO3): 7.59
- log (protonation constant) ([2]; species LH 11 (NH2), 0.1 M KNO3, at least three titrations): 7.59
- log (protonation constant) [2, 4]: 14.75
- logk (stepwise protonation, pK) [2, 4]: 7.16
- log (protonation constant) [2, 5]: 20.71
- logk (stepwise protonation, pK) [2, 5]: 5.96
- log (protonation constant) [2, 6]: 26.03
- logk (stepwise protonation, pK) [2, 6]: 5.32
- log (protonation constant) [2, 7]: 30.69
- logk (stepwise protonation, pK) [2, 7]: 4.66
- log (protonation constant) [2, 8]: 34.90
- logk (stepwise protonation, pK) [2, 8]: 4.20
- log (protonation constant) [2, 9]: 38.44
- logk (stepwise protonation, pK) [2, 9]: 3.55
- log (protonation constant) [2, 10]: 41.75
- logk (stepwise protonation, pK) [2, 10]: 3.31
Substance: HSDPARRGELSVC-C-VSLEGRRAPDSH (disulfide) [d-bdnf]
- neuronal cell fraction (β3-tubulin positive) [3]: significant increase of detected neurons with respect to untreated cells, in a similar way to BDNF
